Results from patent publication US7662864B2, “Solution polymerization processes to prepare a polymer that degrades to release a physiologically active agent” (Rutgers, The State University of New Jersey, priority 2003, dated 2010).
Read-outs that look alike come from different tables or passages of the source.

Tests used:
[1] = Plasma diflunisal in rats after subcutaneous polydiflunisal microspheres; assay type: in vivo; conditions: single oral dose
Source text: Processes for making nanoparticle formulations are also known in the art, and need not be fully described in this patent. The surface eroding property of polymers such as polydiflunisal makes for solid, non-porous particles, e.g. nano- and micro-spheres, useful for sustained drug delivery, and their release duration may be controlled by varying particle diameter, e.g. larger microparticles biodegrade more slowly than smaller ones. Nano- and microparticles for pharmaceutical formulations may be designed to deliver an agent(s) or compound(s) incorporated into the polymer backbone and optionally an agent(s) blended, appended to, or dispersed in the polymer. […] Microparticle formulations of about 1, 2, 5, 7.5, 10, 25, 50 to about 10, 15, 30, 50, 75, 100, 250 μm are suitable for use in a pharmaceutical, veterinary or other type of formulations. Similarly, nanoparticle formulations may be administered for various applications, having a particle size about 1, 2, 5, 10 to about 15, 20, 30, 50, 100, 250, 500 nm, or various ranges between any two of these values. […] While the injection of a drug or biological agent carried by a polymer of the invention, e.g. a polyNSAID, may be expected to generate significant drug, e.g. NSAID, concentrations in tissues near the injection site, their systemic levels in most cases will remain less than about […], which are far below therapeutic levels. […]

[2] = cited from earlier work
[3] = cited from earlier work; for Plasma Levels (Anti-Inflammatory Effectiveness): Clinical Use
Rat = conditions: in vivo; cited from earlier work
[4] = system: chronically-inflamed tissue; conditions: cited from earlier work

## O=C(O)c1cc(-c2ccc(F)cc2F)ccc1O [Diflunisal, 5-(2,4-difluorophenyl)-salicylic acid]
[1]
  course of drug level: declined rapidly
[2]
  Water Solubility: Very Low
[3]
  Plasma Levels (Anti-Inflammatory Effectiveness): 50 to 190 µg/mL
[3]; in vivo
  No. Metabolites: 2
  Plasma half-life: 8 to 12 h
  Where Metabolized: Liver, Intestine

## O=C(O)CCCCCCCCC(=O)O [Sebacic Acid]
Rat
  Rat Oral LD50: 14,470 mg/kg

## O=C(O)c1ccccc1O [Salicylic Acid]
[2]
  Water Solubility: High
[3]
  Plasma Levels (Anti-Inflammatory Effectiveness): 150 to 300 µg/mL

## CN1CC[C@]23c4c5ccc(O)c4O[C@H]2[C@@H](O)C=C[C@H]3[C@H]1C5 [morphine]
[4]; 1 mg injected into chronically-inflamed gum tissue
  pain relief: profound pain relief
[4]; 3 mg intra-articular injection in RA patients
  pain relief: pain relief similar to that of 4 mg dexamethasone
